Data reported in ChEMBL document CHEMBL1201862, “PubChem BioAssay data set” (2004).
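These data come from cells grown in 96-well plates and exposed to compound for 48 hours at five concentrations. Here, GI50 denotes the concentration required for 50% inhibition of growth.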 Activity calls are given as the source filed them. Rule as the data show it: active = GI50 up to about 1.1 µM and inactive = higher.

How the values were obtained:
Test in all cases: DTP human tumour cell line panel, 48 h
786-0 = test system: 786-0
A498 = test system: A498
A549 = test system: A549
ACHN = test system: ACHN
BT-549 = test system: BT-549
CAKI-1 = test system: CAKI-1
CCRF-CEM = test system: CCRF-CEM
COLO 205 = test system: COLO 205
DU-145 = test system: DU-145
EKVX = test system: EKVX
HCC 2998 = test system: HCC 2998
HCT-116 = test system: HCT-116
HCT-15 = test system: HCT-15
HL-60 = test system: HL-60
HOP-62 = test system: HOP-62
HOP-92 = test system: HOP-92
HT-29 = test system: HT-29
Hs-578T = test system: Hs-578T
IGROV-1 = test system: IGROV-1
K562 = test system: K562
KM12 = test system: KM12
LOX IMVI = test system: LOX IMVI
M14 = test system: M14
MCF7 = test system: MCF7
MDA-MB-231 = test system: MDA-MB-231
MDA-MB-435 = test system: MDA-MB-435
MDA-N = test system: MDA-N
MOLT-4 = test system: MOLT-4
Malme-3M = test system: Malme-3M
NCI-H226 = test system: NCI-H226
NCI-H23 = test system: NCI-H23
NCI-H460 = test system: NCI-H460
NCI-H522 = test system: NCI-H522
NCI/ADR-RES = test system: NCI/ADR-RES
OVCAR-3 = test system: OVCAR-3
OVCAR-4 = test system: OVCAR-4
OVCAR-5 = test system: OVCAR-5
OVCAR-8 = test system: OVCAR-8
PC-3 = test system: PC-3
RPMI-8226 = test system: RPMI-8226
RXF 393 = test system: RXF 393
SF-268 = test system: SF-268
SF-295 = test system: SF-295
SF-539 = test system: SF-539
SK-MEL-28 = test system: SK-MEL-28
SK-MEL-2 = test system: SK-MEL-2
SK-MEL-5 = test system: SK-MEL-5
SK-OV-3 = test system: SK-OV-3
SN12C = test system: SN12C
SNB-19 = test system: SNB-19
SNB-75 = test system: SNB-75
SW-620 = test system: SW-620
T47D = test system: T47D
TK-10 = test system: TK-10
U-251 = test system: U-251
UACC-257 = test system: UACC-257
UACC-62 = test system: UACC-62
UO-31 = test system: UO-31

Measured: GI50

C/C=C(\C)c1cc(=O)c2c(C)cc3c(c2o1)C(=O)c1c(O)c(C2CC(C)(N(C)C)C(OC(C)=O)C(C)O2)cc(C2CC(N(C)C)C(O)C(C)O2)c1C3=O (stereo unspecified)
inactive: A498 1.48 µM | CCRF-CEM 3.12 µM | HOP-92 1.45 µM | Hs-578T 2 µM | MDA-MB-231 1.14 µM | MDA-N 1.18 µM | NCI-H226 1.31 µM | NCI/ADR-RES 1.41 µM | OVCAR-3 2.13 µM | OVCAR-4 1.48 µM | OVCAR-5 1.25 µM | PC-3 1.35 µM | SK-MEL-28 1.91 µM | SK-MEL-2 1.22 µM | SK-OV-3 1.95 µM | SNB-19 1.52 µM | SNB-75 1.64 µM | T47D 1.53 µM | UACC-257 1.49 µM | UACC-62 1.12 µM
active: 786-0 0.358 µM | A549 0.41 µM | ACHN 0.155 µM | BT-549 1.07 µM | CAKI-1 0.265 µM | COLO 205 0.621 µM | DU-145 0.258 µM | EKVX 1.12 µM | HCC 2998 0.0589 µM | HCT-116 0.185 µM | HL-60 0.438 µM | HOP-62 0.891 µM | HT-29 0.324 µM | IGROV-1 0.8 µM | K562 0.652 µM | KM12 1.12 µM | LOX IMVI 0.731 µM | M14 0.748 µM | MCF7 0.157 µM | MDA-MB-435 1.03 µM | MOLT-4 0.372 µM | Malme-3M 0.352 µM | NCI-H23 0.971 µM | NCI-H460 0.00982 µM | NCI-H522 0.172 µM | OVCAR-8 0.542 µM | RPMI-8226 1.08 µM | RXF 393 0.505 µM | SF-268 0.655 µM | SF-295 1.06 µM | SF-539 0.574 µM | SK-MEL-5 0.625 µM | SN12C 0.817 µM | SW-620 0.532 µM | TK-10 1.06 µM | U-251 0.49 µM | UO-31 0.948 µM
1.27 µM: HCT-15

CC1(C)N=C(N)N=C(N)N1c1cccc(C(=O)Nc2ccc(S(=O)(=O)F)cc2)c1
inactive: 786-0 > 100 µM | A498 > 100 µM | A549 > 100 µM | ACHN > 100 µM | BT-549 > 100 µM | CAKI-1 > 100 µM | CCRF-CEM > 100 µM | COLO 205 > 100 µM | DU-145 > 100 µM | EKVX > 100 µM | HCT-116 > 100 µM | HL-60 > 100 µM | HOP-62 > 100 µM | HOP-92 > 100 µM | HT-29 > 100 µM | Hs-578T > 100 µM | IGROV-1 > 100 µM | K562 > 100 µM | KM12 > 100 µM | LOX IMVI > 100 µM | M14 > 100 µM | MCF7 > 100 µM | MDA-MB-231 > 100 µM | MDA-MB-435 > 100 µM | MDA-N > 100 µM | MOLT-4 > 100 µM | Malme-3M > 100 µM | NCI-H226 > 100 µM | NCI-H23 > 100 µM | NCI-H460 > 100 µM | NCI-H522 > 100 µM | NCI/ADR-RES > 100 µM | OVCAR-3 > 100 µM | OVCAR-4 > 100 µM | OVCAR-5 > 100 µM | OVCAR-8 > 100 µM | PC-3 > 100 µM | RPMI-8226 > 100 µM | RXF 393 > 100 µM | SF-268 > 100 µM | SF-295 > 100 µM | SF-539 > 100 µM | SK-MEL-28 > 100 µM | SK-MEL-2 > 100 µM | SK-MEL-5 > 100 µM | SK-OV-3 > 100 µM | SN12C > 100 µM | SNB-19 > 100 µM | SNB-75 > 100 µM | SW-620 > 100 µM | T47D > 100 µM | TK-10 > 100 µM | U-251 > 100 µM | UACC-257 > 100 µM | UACC-62 > 100 µM | UO-31 > 100 µM
> 100 µM: HCT-15

COc1cc2c(cc1-c1coc3cc(O)ccc3c1=O)OCO2 [CUNEATIN]
18.6 µM: HCT-15
inactive: 786-0 15.7 µM | A498 31 µM | A549 30.3 µM | ACHN 20.1 µM | BT-549 19.5 µM | CAKI-1 24 µM | CCRF-CEM > 100 µM | COLO 205 > 100 µM | DU-145 39.6 µM | EKVX 34.4 µM | HCC 2998 39.7 µM | HCT-116 18.7 µM | HL-60 > 100 µM | HOP-62 16.4 µM | HOP-92 29 µM | HT-29 99.3 µM | Hs-578T 22.2 µM | IGROV-1 22.9 µM | K562 > 100 µM | KM12 33.3 µM | LOX IMVI 46.6 µM | M14 71 µM | MCF7 35.3 µM | MDA-MB-231 > 10 µM | MDA-MB-435 > 100 µM | MDA-N 48.9 µM | MOLT-4 > 100 µM | NCI-H226 20.3 µM | NCI-H23 19.5 µM | NCI-H460 18.1 µM | NCI-H522 16.4 µM | NCI/ADR-RES 21.8 µM | OVCAR-3 32.6 µM | OVCAR-4 19.8 µM | OVCAR-5 40.2 µM | OVCAR-8 19.3 µM | PC-3 43 µM | RPMI-8226 26.5 µM | SF-268 19.3 µM | SF-295 20.4 µM | SF-539 23.4 µM | SK-MEL-28 45.8 µM | SK-MEL-2 37 µM | SK-MEL-5 37.2 µM | SK-OV-3 19.9 µM | SN12C 25.4 µM | SNB-19 19.5 µM | SNB-75 20.5 µM | SW-620 32.8 µM | T47D 29.6 µM | TK-10 20.9 µM | U-251 21.5 µM | UACC-257 26 µM | UACC-62 23.6 µM | UO-31 22.1 µM
